This is an account of results in patent publication US9737563B2, “Magnesium compositions and uses thereof for neurological disorders” (Neurocentria, Inc., priority 2007, dated 2017).

One data set relates to AD mice. As to the kind of experiment: Morris water maze test, comparison with anti-AD drugs. The data set is classed as in vivo. To be noted: AD mice aged 13 months. How it is done:
Two known anti-AD drugs named […] memantine were administered separately to the mice. For these experiments, mice were tested for effects on memory and learning using the Morris water maze test, essentially as described in the previous example.

Data set [1] is described as follows: Magnesium absorption rate in rats (metabolic cages, urine and feces magnesium by ICP-AES). The following applies: Example 5, gluconate in skim milk or 5 weight percent lactose water, chloride in water. On the procedure:
Fifty 3-month old, male Sprague Dawley (SD) rats were divided into five groups of ten rats. Rats of this age and older are considered adult. Each of the rats was placed in a separate metabolic cage equipped with urine- and feces-collecting wells. All of the rats were maintained in a temperature-controlled room (22° C. to 25° C.) with a dark period from 08:00 pm to 08:00 am daily. From day 1 through day 3, each rat was fed daily 15 g of magnesium-free food and de-ionized water. […] The medium was skim milk for Composition 1 and Group 1, milk prepared from powdered milk, by diluting the powdered milk with water to obtain a composition like that of skim milk, for Composition 2 and Group 2, 1% milk cream in water for Composition 3 and Group 3, water comprising 5 weight percent lactose for Composition 4 and Group 4, and water for the Control Composition and Control Group. […] From day 11 through day 12, each rat was fed daily 15 g of magnesium-free food and de-ionized water.
From day 4 through day 10, urine from each rat was collected daily. The collected urine from each rat was then pooled together and the total volume of the pooled urine from each rat was recorded. The pooled urine from each rat, in an amount of […], was analyzed for magnesium content using an inductively coupled plasma-atomic emission spectrometer (ICP-AES). From day 5 to day 11, feces from each rat were collected daily. The collected feces from each rat were pooled together and the pooled feces were weighed and homogenized. The pooled feces from each rat, in an amount of 0.5 g, were analyzed for magnesium content using an ICP-AES.
A formula was used to calculate a magnesium absorption rate for each rat. The formula used was Y=AX−B, wherein X was the average total daily magnesium intake, Y was the average net daily amount of magnesium absorbed, as calculated by X minus the average daily amount of magnesium excreted from feces, B was the average daily amount of magnesium excreted from feces when the magnesium intake was zero, and the slope A represented the magnesium absorption rate. Data points (X, Y) associated with each rat in each group often rats, with the exception of the best points and the worst points, were plotted. The value of A, the magnesium absorption rate, associated with each of Groups 1-4, and thus with each of the Compositions 1-4, was then obtained using linear regression. The value of A, the magnesium absorption rate, associated with the Control Group, and thus with the Control Composition, was also obtained using linear regression, and relabeled as A0. […]

In data set [2] the test system is aging rats (12-14 months old). To be noted: for novel object exploration preference: single training. On the procedure:
In this example, the effect of magnesium supplementation on recognition memory was tested. Three groups of rats were used in these experiments: 1) young rats (three months old); aging rats (12-14 months old), and; 3) magnesium-treated aging rats (12-14 months old, diet supplemented with 6 mg/kg MgCl2 from 8 months of age). We used experimentally naive, female, Sprague-Dawley young […], aging (12-14 month old) and […] rats (Charles River) at the beginning of the behavior experiments. They were housed two per cage with continuous access to food and water under a 12:12 light-dark cycle, with light onset at 8:00 a.m. […] All experiments involving animals were approved by the Massachusetts Institute of Technology's and Tsinghua University Committees on Animal Care.
The three groups of rats were tested for recognition memory using an object recognition test with a single exposure to the object during training. The task is based on the natural tendency of rodents to explore new objects and tests the animals' memory capacity for distinguishing novel versus familiar objects.
Briefly, the rats were first individually habituated to the personnel and then to open-field arena during 2 weeks. The rats were then allowed to explore two identical objects placed into the arena at fixed locations until they had accumulated 30 s of total inspection time (where this is defined as active exploration, sniffing or touching the object with the nose and/or forepaws) or for a maximum of 20 min. The rat was returned to the arena for the retention test and allowed to explore for another 30 sec. The retention intervals were 10 min and 24 hours. Objects were cleaned thoroughly between trials with 20% ethanol solution to ensure the absence of olfactory cues. The particular objects for a given trial were randomly determined, but each object was used for only one trial per rat. Memory of the familiar object is associated with increased exploration of the new object and an exploration index (% correct) is calculated as new object inspection time/30. […]

For another data set, the system named is aging rats. On the procedure: Three groups of animals (young, aging, and magnesium-treated aging rats) were used. […] Spatial working memory was assessed using a T-maze non-matching-to-place task. […] Spatial working memory was first assessed on an elevated T-maze. The maze was located 1 m above the floor in a well lit laboratory that contained various prominent distal extra-maze cues. The rats were handled and habituated to the maze for 10 days, and to Froot Loop® cereal over several days before the test. Each trial consisted of a sample run and a choice run, with delay intervals of 15 s during the training and the pattern completion tasks. On the sample run, the rats were forced either left or right by the presence of the block, according to a pseudorandom sequence (with equal numbers of left and right turns per session, and with no more than two consecutive turns in the same direction). A cereal reward was available in the food well at the end of the arm. The block was then removed, and the rat was allowed a free choice of either arm. The animal was rewarded for choosing the previously unvisited arm. Rats were run one trial at a time with an inter-trial interval of 10 min. Each daily session consisted of 6 trials.
The rats were tested for 10 consecutive days on a rewarded forced-choice alternation task. The percentage of correct choices (alternations) was recorded for each daily session. […] Then, spatial working memory was tested by a gradual increase of the delay between the sample and the choice trials (FIG. 10, right panel).

The subject of the next data set is diabetic patients. To be noted: nearly 1 g of magnesium daily for 1 month; cited from earlier work.
For data set [3], the system named is young (9-month old) and aged (25-month old) rats. The following applies: food containing 2% for 8 days, cited from earlier work.
Setting [4] is: relatively high magnesium dosage.
The mark [5] stands for this setting: relatively low magnesium dosage.

Like-named read-outs stand apart in the source and are kept apart here.

Take `COc1cc2c(cc1OC)C(=O)C(CC1CCN(Cc3ccccc3)CC1)C2` (stereo not drawn) [aricept]: the “reducing the effects of AD on learning capacity” value with AD mice is listed as “both being better at reducing the effects of AD on learning capacity than aricept”.

For the compound `[Cl-].[Cl-].[Mg+2]` [magnesium chloride], the magnesium absorption rate result is “less desirable” in data set [1] (setting [4]) and “suitable, but lower” in data set [1] (setting [5]). The “novel object exploration preference” value is given as “preferentially explored the novel object to the same extent as young rats” in data set [2] (10 minute retention interval, aging rats, 6 mg/kg from 8 months of age) and “lose there ability to distinguish novel versus familiar objects” in data set [2] (24 hours retention interval). Further, in data set [2] (two training sessions separated by 10 minutes, 24-hour retention interval), the novel object preference entry is reported as “retained a high level of preference”. For the same compound, in the data set on aging rats (2 and 5 min delays, p<0.05), the “spatial working memory with increased delay” value was “significantly enhanced the performance of the aging rats at 2 and 5 min delays”. Also, the “percentage of correct choices during training” value with aging rats (15 sec delay, versus untreated aging rats, p<0.05) was “performed significantly better from their first trials”. In addition, in the data set on aging rats (after 8 days of training, all three groups), the “asymptotic choice accuracy level” value is around 94%.

Turning to `[O]=[Mg]` [magnesium oxide], in the data set with diabetic patients, the metabolic control result is reported as “only minor improvement in metabolic control”. In addition, the side-effect result in data set [3] was “diarrhea and weight loss”. Besides, the cognitive function entry in data set [3] (gain transient) is recorded as “some sign of improvement of cognitive function”.

Consider `CC12CC3CC(C)(C1)CC(N)(C3)C2` [memantine], for which the “reducing the effects of AD on learning capacity” value in the data set on AD mice is “better at reducing the effects of AD on learning capacity than aricept”.

Regarding magnesium gluconate, the magnesium absorption rate result in data set [1] (setting [4]) is reported as “suitably close to those associated with the lower dosage compositions”; in data set [1] (setting [5]) it was “suitable magnesium absorption rates”.
